Test results from PMC8918994, “Characterization of the Trimethylamine N-Oxide Transporter From Pelagibacter Strain HTCC1062 Reveals Its Oligotrophic Niche Adaption” (Frontiers in Microbiology, 2022).

Legend:
Assay in all cases: isothermal titration calorimetry
Type in all cases: binding
[1] = target: T1, TmoX1062 (Candidatus Pelagibacter communis, UniProt Q4FL33)
T1 construct: gene tmoX
T1 sequence (Q4FL33 25-314): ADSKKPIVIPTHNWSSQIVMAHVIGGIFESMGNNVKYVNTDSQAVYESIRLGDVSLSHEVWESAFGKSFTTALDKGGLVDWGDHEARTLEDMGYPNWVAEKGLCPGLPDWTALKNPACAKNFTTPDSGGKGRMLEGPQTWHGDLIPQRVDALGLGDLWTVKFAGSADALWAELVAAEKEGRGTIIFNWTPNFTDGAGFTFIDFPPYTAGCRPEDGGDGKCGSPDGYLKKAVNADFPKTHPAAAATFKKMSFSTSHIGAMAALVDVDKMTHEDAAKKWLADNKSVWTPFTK
Text: isothermal titration calorimetry on TmoX1062

[2] = target: T2, TmoX1062 (Candidatus Pelagibacter communis, UniProt Q4FL33, E114A); conditions: 10 mM Tris-HCl pH 8.0, 100 mM NaCl
T2 construct: gene tmoX
T2 sequence (Q4FL33 25-314 E114A): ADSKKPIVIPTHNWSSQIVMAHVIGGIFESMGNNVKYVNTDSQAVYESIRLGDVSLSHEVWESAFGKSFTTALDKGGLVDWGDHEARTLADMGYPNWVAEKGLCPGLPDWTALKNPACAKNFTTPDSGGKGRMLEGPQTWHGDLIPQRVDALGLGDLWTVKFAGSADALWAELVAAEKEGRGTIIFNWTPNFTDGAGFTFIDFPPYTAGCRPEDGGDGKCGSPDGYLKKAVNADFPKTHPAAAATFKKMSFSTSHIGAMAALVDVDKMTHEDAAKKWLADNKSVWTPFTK

[3] = target: T3, TmoX1062 (Candidatus Pelagibacter communis, UniProt Q4FL33, W212A); conditions: 10 mM Tris-HCl pH 8.0, 100 mM NaCl
T3 construct: gene tmoX
T3 sequence (Q4FL33 25-314 W212A): as the sequence (Q4FL33 25-314 E114A) above, with A90E, W188A counted along it

[4] = target: T4, TmoX1062 (Candidatus Pelagibacter communis, UniProt Q4FL33, W85A); conditions: 10 mM Tris-HCl pH 8.0, 100 mM NaCl
T4 construct: gene tmoX
T4 sequence (Q4FL33 25-314 W85A): as the sequence (Q4FL33 25-314 E114A) above, with W61A, A90E counted along it

[5] = target: T5, TmoX1062 (Candidatus Pelagibacter communis, UniProt Q4FL33, W38A); conditions: 10 mM Tris-HCl pH 8.0, 100 mM NaCl
T5 construct: gene tmoX
T5 sequence (Q4FL33 25-314 W38A): as the sequence (Q4FL33 25-314 E114A) above, with W14A, A90E counted along it

[6] = target: T6, TmoX1062 (Candidatus Pelagibacter communis, UniProt Q4FL33, F210A); conditions: 10 mM Tris-HCl pH 8.0, 100 mM NaCl
T6 construct: gene tmoX
T6 sequence (Q4FL33 25-314 F210A): as the sequence (Q4FL33 25-314 E114A) above, with A90E, F186A counted along it

[7] = target: T7, TmoX1062 (Candidatus Pelagibacter communis, UniProt Q4FL33, F89A); conditions: 10 mM Tris-HCl pH 8.0, 100 mM NaCl
T7 construct: gene tmoX
T7 sequence (Q4FL33 25-314 F89A): as the sequence (Q4FL33 25-314 E114A) above, with F65A, A90E counted along it

Kd [1] [nM]	SMILES	binding affinity relative to WT (100%) [2]	binding affinity relative to WT (100%) [3]	binding affinity relative to WT (100%) [4]	binding affinity relative to WT (100%) [5]	binding affinity relative to WT (100%) [6]	binding affinity relative to WT (100%) [7]
2500 ± 330	C[N+](C)(C)CCO [Choline]						
520 ± 120	C[N+](C)(C)[O-] [TMAO]	Mutation of Glu114 to alanine abolished the binding affinity of TmoX1062 toward TMAO	Mutations of Trp85, Phe89 and Trp212 to alanine severely deceased the binding affinity of TmoX1062	Mutations of Trp85, Phe89 and Trp212 to alanine severely deceased the binding affinity of TmoX1062	mutants W38A and F210A still maintained a relatively high TMAO binding affinity	mutants W38A and F210A still maintained a relatively high TMAO binding affinity	Mutations of Trp85, Phe89 and Trp212 to alanine severely deceased the binding affinity of TmoX1062
